One test deals with T1, CDK4 (Homo sapiens, UniProt P11802).
T1 construct: endogenous in cells; host or cells: Calu-1
In words: CDK4 percentage degradation in Calu-1 cells (immunoblotting). The class given is cell-based. The following applies: for inhibition at 10 µM: read-out: CDK4 Degradation (10 μM); for inhibition at 0.2 µM: read-out: CDK4 Degradation (200 nM). An outline of the steps: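 CDK4 degradation was measured by immunoblotting. Cells were washed in cold PBS and lysed in RIPA buffer with inhibitors for 30 min at 4° C., then spun at 13,000 rpm to clear. After BCA protein determination, lysates were heated at 99° C. for 5 min in Laemmli buffer, resolved on SDS-PAGE, imaged on a ChemiDoc MP with ECL substrate, and band intensities quantified.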
On the technique in general: A western blot detects proteins with antibodies after separation by electrophoresis.

The test system of a further test is cyclin D1. In words: Cyclin D1 percentage degradation in Calu-1 cells (immunoblotting). The following applies: 16 hours. The class given is cell-based. The essentials: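 Cyclin D1 degradation was assessed by western blot. Clarified lysates, obtained by RIPA lysis with inhibitors and centrifugation at 13,000 rpm, were normalized by BCA protein assay and separated by SDS-PAGE. Bands were detected with Western ECL Substrate on a Bio-Rad ChemiDoc MP Imaging system and quantified in Image Lab software to derive percentage degradation.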

Like-named read-outs stand apart in the source and are kept apart here. Bounds are passed on as bounds.

T1 sequence (P11802 2-303 limits assumed): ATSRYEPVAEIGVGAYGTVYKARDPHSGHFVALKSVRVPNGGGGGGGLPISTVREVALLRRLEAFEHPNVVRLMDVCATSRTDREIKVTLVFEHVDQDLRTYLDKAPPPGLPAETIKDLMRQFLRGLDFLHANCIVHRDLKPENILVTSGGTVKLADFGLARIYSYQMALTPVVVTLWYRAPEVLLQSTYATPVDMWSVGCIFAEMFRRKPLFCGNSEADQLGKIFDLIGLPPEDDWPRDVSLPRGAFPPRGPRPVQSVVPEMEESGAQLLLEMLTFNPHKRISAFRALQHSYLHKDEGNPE
T1 sequence (P24385 whole entry partner): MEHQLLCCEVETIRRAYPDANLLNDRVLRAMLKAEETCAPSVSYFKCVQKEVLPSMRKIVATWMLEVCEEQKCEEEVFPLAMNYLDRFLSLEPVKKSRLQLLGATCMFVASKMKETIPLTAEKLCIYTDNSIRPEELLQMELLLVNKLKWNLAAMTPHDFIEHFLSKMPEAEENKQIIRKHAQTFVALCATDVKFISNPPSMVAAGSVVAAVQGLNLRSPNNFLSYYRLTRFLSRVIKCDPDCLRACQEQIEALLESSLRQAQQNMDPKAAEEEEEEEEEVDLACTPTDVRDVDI
T1 sequence (Q16531 2-1140 limits assumed, further chain): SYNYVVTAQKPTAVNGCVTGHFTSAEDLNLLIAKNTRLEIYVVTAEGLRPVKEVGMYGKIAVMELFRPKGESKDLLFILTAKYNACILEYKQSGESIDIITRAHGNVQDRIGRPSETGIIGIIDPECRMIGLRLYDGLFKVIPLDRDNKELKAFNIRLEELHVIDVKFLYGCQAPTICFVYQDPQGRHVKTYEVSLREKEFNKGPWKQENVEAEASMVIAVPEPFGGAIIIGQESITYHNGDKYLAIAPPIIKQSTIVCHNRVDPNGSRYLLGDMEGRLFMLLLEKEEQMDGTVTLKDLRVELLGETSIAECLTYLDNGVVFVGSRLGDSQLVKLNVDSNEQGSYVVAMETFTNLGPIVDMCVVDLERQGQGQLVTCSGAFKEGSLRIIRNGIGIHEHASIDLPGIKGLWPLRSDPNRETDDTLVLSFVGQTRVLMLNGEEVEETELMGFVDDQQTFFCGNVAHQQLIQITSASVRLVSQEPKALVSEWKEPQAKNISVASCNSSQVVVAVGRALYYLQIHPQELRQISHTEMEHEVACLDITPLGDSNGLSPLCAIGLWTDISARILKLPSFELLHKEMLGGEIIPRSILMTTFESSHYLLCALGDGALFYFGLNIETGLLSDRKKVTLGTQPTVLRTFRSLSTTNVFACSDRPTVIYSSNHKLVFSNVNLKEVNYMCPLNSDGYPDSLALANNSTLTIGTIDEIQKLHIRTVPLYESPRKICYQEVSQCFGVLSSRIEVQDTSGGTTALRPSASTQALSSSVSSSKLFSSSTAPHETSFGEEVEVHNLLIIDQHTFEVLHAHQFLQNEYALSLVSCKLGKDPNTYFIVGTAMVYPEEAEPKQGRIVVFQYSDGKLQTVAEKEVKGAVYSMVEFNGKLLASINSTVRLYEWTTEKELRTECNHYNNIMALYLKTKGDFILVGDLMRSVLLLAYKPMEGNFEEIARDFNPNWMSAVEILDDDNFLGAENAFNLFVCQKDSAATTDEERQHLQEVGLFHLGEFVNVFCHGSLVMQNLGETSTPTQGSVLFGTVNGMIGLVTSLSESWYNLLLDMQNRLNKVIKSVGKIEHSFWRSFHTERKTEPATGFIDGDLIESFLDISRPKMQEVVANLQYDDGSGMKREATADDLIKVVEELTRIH

Regarding `Cc1nc(NC(=O)c2ccccc2NC(=O)CCNC(=O)CN2CCN(c3ccc(Nc4ncc(F)c(-c5cc(F)c6nc(C)n(C(C)C)c6c5)n4)nc3)CC2)sc1C` [CPD-301, N-(4,5-Dimethylthiazol-2-yl)-2-(3-(2-(4-(6-((5-fluoro-4-(4-fluoro-1-isopropyl-2-methyl-1H-benzo[d]imidazol-6-yl)pyrimidin-2-yl)amino)pyridin-3-yl)piperazin-1-yl)acetamido)propanamido)benzamide], the inhibition at 10 µM at CDK4 (Calu-1 cells, 16 hours) was < 30%. Further, the “CyclinD1 Degradation (10 μM)” value with cyclin D1 was “D (protein percentage degradation < 30%)”.

Regarding `CC(=O)c1c(C)c2cnc(Nc3ccc(N4CCN(C(=O)CCCCC(=O)Nc5ccccc5C(=O)Nc5nc(C)c(C)s5)CC4)cn3)nc2n(C2CCCC2)c1=O` [CPD-156, 2-(6-(4-(6-((6-Acetyl-8-cyclopentyl-5-methyl-7-oxo-7,8-dihydropyrido[2,3-d]pyrimidin-2-yl)amino)pyridin-3-yl)piperazin-1-yl)-6-oxohexanamido)-N-(4,5-dimethylthiazol-2-yl)benzamide], the inhibition at 0.2 µM at CDK4 (Calu-1, 16 h) is < 30%. Moreover, the “CyclinD1 Degradation (200 nM)” value in the test with cyclin D1 is listed as “D (protein percentage degradation <30%)”.

Consider `Cc1nc(NC(=O)c2ccccc2NC(=O)CCCCCNC(=O)CN2CCN(c3ccc(Nc4ncc(F)c(-c5cc(F)c6nc(C)n(C(C)C)c6c5)n4)nc3)CC2)sc1C` [CPD-304, N-(4,5-Dimethylthiazol-2-yl)-2-(6-(2-(4-(6-((5-fluoro-4-(4-fluoro-1-isopropyl-2-methyl-1H-benzo[d]imidazol-6-yl)pyrimidin-2-yl)amino)pyridin-3-yl)piperazin-1-yl)acetamido)hexanamido)benzamide], for which the inhibition at 10 µM on CDK4 (Calu-1 cells, 16 hours) is < 30%. The “CyclinD1 Degradation (10 μM)” value in the test on cyclin D1 is “D (protein percentage degradation < 30%)”.

Take `CC(=O)c1c(C)c2cnc(Nc3ccc(N4CCN(CC(=O)NCCOCCOCCC(=O)Nc5ccccc5C(=O)Nc5ccc(C#N)nn5)CC4)cn3)nc2n(C2CCCC2)c1=O` [CPD-369, 2-(3-(2-(2-(2-(4-(6-((6-Acetyl-8-cyclopentyl-5-methyl-7-oxo-7,8-dihydropyrido[2,3-d]pyrimidin-2-yl)amino)pyridin-3-yl)piperazin-1-yl)acetamido)ethoxy)ethoxy)propanamido)-N-(6-cyanopyridazin-3-yl)benzamide]: the inhibition at 0.2 µM on CDK4 (Calu-1 cells, 200 nM, 16 hours) is < 30%. Besides, the “CyclinD1 Degradation (200 nM)” value in the test on cyclin D1 is listed as “D (protein percentage degradation <30%)”.

Take `CC(=O)c1c(C)c2cnc(Nc3ccc(N4CCN(CC(=O)NCCCCCCCNc5cccc(C(=O)Nc6cc(C)n(C)n6)c5C)CC4)cn3)nc2n(C2CCCC2)c1=O` [CPD-329, 3-((7-(2-(4-(6-((6-Acetyl-8-cyclopentyl-5-methyl-7-oxo-7,8-dihydropyrido[2,3-d]pyrimidin-2-yl)amino)pyridin-3-yl)piperazin-1-yl)acetamido)heptyl)amino)-N-(1,5-dimethyl-1H-pyrazol-3-yl)-2-methylbenzamide]: the inhibition at 0.2 µM at CDK4 (Calu-1 cells, 200 nM, 16 hours) is > 80%. In the test on cyclin D1, the “CyclinD1 Degradation (200 nM)” value is “A (protein percentage degradation >=80%)”.

As to `Cc1nc(NC(=O)c2ccccc2NC(=O)CCOCCOCCOCCOCCNC(=O)CN2CCN(c3ccc(Nc4ncc5cc(C(=O)N(C)C)n(C6CCCC6)c5n4)nc3)CC2)sc1C` [CPD-297, 7-Cyclopentyl-2-((5-(4-(18-((2-((4,5-dimethylthiazol-2-yl)carbamoyl)phenyl)amino)-2,18-dioxo-6,9,12,15-tetraoxa-3-azaoctadecyl)piperazin-1-yl)pyridin-2-yl)amino)-N,N-dimethyl-7H-pyrrolo[2,3-d]pyrimidine-6-carboxamide], at CDK4 (Calu-1 cells, 16 hours), the inhibition at 10 µM lay in the range of 50 to 80%. The “CyclinD1 Degradation (10 μM)” value with cyclin D1 is on record as “A (protein percentage degradation >= 80%)”.

Turning to `CC(=O)c1c(C)c2cnc(Nc3ccc(N4CCN(CC(=O)NCCCCCCCNc5ccc(C)c(C(=O)Nc6nc(C)c(C)s6)c5)CC4)cn3)nc2n(C2CCCC2)c1=O` [CPD-117, 5-((7-(2-(4-(6-((6-Acetyl-8-cyclopentyl-5-methyl-7-oxo-7,8-dihydropyrido[2,3-d]pyrimidin-2-yl)amino)pyridin-3-yl)piperazin-1-yl)acetamido)heptyl)amino)-N-(4,5-dimethylthiazol-2-yl)-2-methylbenzamide], the inhibition at 0.2 µM at CDK4 (Calu-1 cells, 200 nM, 16 hours) fell in the range of 30 to 50%. The “CyclinD1 Degradation (200 nM)” value in the test on cyclin D1 was “C (protein percentage degradation <50%, and >=30%)”.

With `Cc1nc(NC(=O)c2ccccc2NC(=O)CCOCCNC(=O)CN2CCN(c3ccc(Nc4ncc5cc(C(=O)N(C)C)n(C6CCCC6)c5n4)nc3)CC2)sc1C` [CPD-294, 7-Cyclopentyl-2-((5-(4-(2-((2-(3-((2-((4,5-dimethylthiazol-2-yl)carbamoyl)phenyl)amino)-3-oxopropoxy)ethyl)amino)-2-oxoethyl)piperazin-1-yl)pyridin-2-yl)amino)-N,N-dimethyl-7H-pyrrolo[2,3-d]pyrimidine-6-carboxamide], the inhibition at 10 µM at CDK4 (Calu-1 cells, 16 hours) was in the range of 50 to 80%. In addition, in the test with cyclin D1, the “CyclinD1 Degradation (10 μM)” value is given as “A (protein percentage degradation >= 80%)”.

Turning to `COc1ccc(NC(=O)c2ccccc2NC(=O)CCOCCOCCNC(=O)CN2CCN(c3ccc(Nc4ncc5c(C)c(C(C)=O)c(=O)n(C6CCCC6)c5n4)nc3)CC2)nn1` [CPD-085, 2-(3-(2-(2-(2-(4-(6-((6-Acetyl-8-cyclopentyl-5-methyl-7-oxo-7,8-dihydropyrido[2,3-d]pyrimidin-2-yl)amino)pyridin-3-yl)piperazin-1-yl)acetamido)ethoxy)ethoxy)propanamido)-N-(6-methoxypyridazin-3-yl)benzamide], at CDK4 (Calu-1 cells, 200 nM, 16 hours), the inhibition at 0.2 µM was > 80%. The “CyclinD1 Degradation (200 nM)” value in the test on cyclin D1 is given as “A (protein percentage degradation >=80%)”.

Turning to `CC(=O)c1c(C)c2cnc(Nc3ccc(N4CCN(CC(=O)NCCOCCOCCC(=O)Nc5ccccc5C(=O)Nc5ncc(C)o5)CC4)cn3)nc2n(C2CCCC2)c1=O` [CPD-066, 2-(3-(2-(2-(2-(4-(6-((6-Acetyl-8-cyclopentyl-5-methyl-7-oxo-7,8-dihydropyrido[2,3-d]pyrimidin-2-yl)amino)pyridin-3-yl)piperazin-1-yl)acetamido)ethoxy)ethoxy)propanamido)-N-(5-methyloxazol-2-yl)benzamide], the inhibition at 0.2 µM on CDK4 (Calu-1 cells, 200 nM, 16 hours) was < 30%. For the same compound, in the test with cyclin D1, the “CyclinD1 Degradation (200 nM)” value is given as “D (protein percentage degradation <30%)”.

With `Cc1nc(NC(=O)c2ccccc2NC(=O)CCCCCCNC(=O)CN2CCN(Cc3ccc(Nc4ncc(F)c(-c5cc(F)c6nc(C)n(C(C)C)c6c5)n4)nc3)CC2)sc1C` [CPD-277, N-(4,5-Dimethylthiazol-2-yl)-2-(7-(2-(4-((6-((5-fluoro-4-(4-fluoro-1-isopropyl-2-methyl-1H-benzo[d]imidazol-6-yl)pyrimidin-2-yl)amino)pyridin-3-yl)methyl)piperazin-1-yl)acetamido)heptanamido)benzamide], the inhibition at 10 µM at CDK4 (Calu-1 cells, 16 hours) was < 30%. In addition, the “CyclinD1 Degradation (10 μM)” value in the test with cyclin D1 is “D (protein percentage degradation < 30%)”.

In the case of `CC(=O)c1c(C)c2cnc(Nc3ccc(N4CCN(CC(=O)NCCOCCOCCC(=O)Nc5ccccc5C(=O)Nc5nc(C6CCOCC6)c(C)s5)CC4)cn3)nc2n(C2CCCC2)c1=O` [CPD-062, 2-(3-(2-(2-(2-(4-(6-((6-Acetyl-8-cyclopentyl-5-methyl-7-oxo-7,8-dihydropyrido[2,3-d]pyrimidin-2-yl)amino)pyridin-3-yl)piperazin-1-yl)acetamido)ethoxy)ethoxy)propanamido)-N-(5-methyl-4-(tetrahydro-2H-pyran-4-yl)thiazol-2-yl)benzamide], on CDK4 (Calu-1 cells, 200 nM, 16 hours), the inhibition at 0.2 µM was < 30%. For the same compound, the “CyclinD1 Degradation (200 nM)” value with cyclin D1 is recorded as “D (protein percentage degradation <30%)”.

Regarding `CC(=O)c1c(C)c2cnc(Nc3ccc(N4CCN(CC(=O)NCCCCCNc5cc(C#N)ccc5C(=O)Nc5ccc(N(C)C)nn5)CC4)cn3)nc2n(C2CCCC2)c1=O` [CPD-376, 2-((5-(2-(4-(6-((6-Acetyl-8-cyclopentyl-5-methyl-7-oxo-7,8-dihydropyrido[2,3-d]pyrimidin-2-yl)amino)pyridin-3-yl)piperazin-1-yl)acetamido)pentyl)amino)-4-cyano-N-(6-(dimethylamino)pyridazin-3-yl)benzamide], the inhibition at 0.2 µM at CDK4 (Calu-1 cells, 200 nM, 16 hours) fell in the range of 50 to 80%. Also, in the test on cyclin D1, the “CyclinD1 Degradation (200 nM)” value is on record as “A (protein percentage degradation >=80%)”.

Consider `COc1cnc(NC(=O)c2ccc(NCCOCCOCCOCCOCCOCCNC(=O)CN3CCN(c4ccc(Nc5ncc6c(C)c(C(C)=O)c(=O)n(C7CCCC7)c6n5)nc4)CC3)cc2C)s1` [CPD-030, 4-((1-(4-(6-((6-Acetyl-8-cyclopentyl-5-methyl-7-oxo-7,8-dihydropyrido[2,3-d]pyrimidin-2-yl)amino)pyridin-3-yl)piperazin-1-yl)-2-oxo-6,9,12,15,18-pentaoxa-3-azaicosan-20-yl)amino)-N-(5-methoxythiazol-2-yl)-2-methylbenzamide], for which the inhibition at 0.2 µM on CDK4 (Calu-1 cells, 200 nM, 16 hours) was 30 to 50%. Further, the “CyclinD1 Degradation (200 nM)” value with cyclin D1 is “B (protein percentage degradation <80%, and >=50%)”.

Regarding `CC(=O)c1c(C)c2cnc(Nc3ccc(N4CCN(CC(=O)NCCOCCOCCC(=O)Nc5ccc(C)cc5C(=O)Nc5nc(C)c(C)s5)CC4)cn3)nc2n(C2CCCC2)c1=O` [CPD-141, 2-(3-(2-(2-(2-(4-(6-((6-Acetyl-8-cyclopentyl-5-methyl-7-oxo-7,8-dihydropyrido[2,3-d]pyrimidin-2-yl)amino)pyridin-3-yl)piperazin-1-yl)acetamido)ethoxy)ethoxy)propanamido)-N-(4,5-dimethylthiazol-2-yl)-5-methylbenzamide], on CDK4 (Calu-1 cells, 200 nM, 16 hours), the inhibition at 0.2 µM lay within 50 to 80%. In addition, in the test with cyclin D1, the “CyclinD1 Degradation (200 nM)” value is “A (protein percentage degradation >=80%)”.

Values taken from patent US20250235543A1, “MODIFIED PROTEINS AND PROTEIN DEGRADERS” (Cullgen (Shanghai), Inc., priority 2021, published 2025).
